Laboratory results from patent US20070048358A1, “Antimicrobial substrates” (priority 2005, published 2007).

Tested on: Staphylococcus aureus (ATCC #27660)
Assay: Rapid Germicidal Time Kill on treated gloves
Type: cell-based
Settings: for log reduction of organisms: nitrile gloves, versus applied organisms estimated from latex control
Protocol: We applied an inoculum of a known amount of microbes to the antimicrobial-treated surface of a glove. After about 3-6 minutes, we assessed the number of microbes that remained on the surface of the treated glove. […] Table 2 reports the relative efficacy of killing after contact with the coated glove. The concentration of organisms on the surface is given at an initial Zero Time point and at 3, 5, and 30 minute points. […] To test the antimicrobial efficacy of a polyhexamethylene biguanide, we treated nitrile examination gloves according to ASTM protocol 04-123409-106 “Rapid Germicidal Time Kill.” In brief, about 50 μL of an overnight culture of Staphylococcus aureus (ATCC #27660, 5×10^8 CFU/mL) was applied to the glove material. After a total contact time of about 6 minutes the glove fabric was placed into a neutralizing buffer. Surviving organisms were extracted and diluted in Letheen broth. Aliquots were spread plated on Tryptic Soy Agar plates. Plates were incubated for 48 hours at 35° C. Following incubation the surviving organisms were counted and the colony forming units (CFU) were recorded. The reduction (log10) in surviving organisms from test material versus control fabric was calculated: Log10 CFU/swatch Control−Log10 CFU/swatch Test Article=Log10 Reduction.

Polyhexamethylene biguanide (PHMB)
log reduction of Staphylococcus aureus ATCC 27660 (microtextured nitrile glove, machine applied at 0.03 g/glove): greater than four log reduction | log reduction of organisms (hand sprayed with no heat): greater than one log reduction | log reduction of organisms (machine sprayed under heated conditions): greater than 5 log
